Assay results as given in patent US20190083457A1, “MITOCHONDRIAL ALDEHYDE DEHYDROGENASE-2 MODULATORS FOR PROTECTING, EXPANDING AND INCREASING THE POTENCY OF HEMATOPOIETIC STEM CELLS” (The Borad of Trustees of the Leland Stanford Junior …, priority 2017, published 2019).
Entries after “also recorded” stand apart in the source; their conditions may differ.

Tests used:
[1] = Tolerability of chronic Alda-1 administration in vivo; conditions: 10 mg/kg.day continuous subcutaneous infusion, 3 months
Experimental: (§1) Mice (wild-type C57BL/6N were administered with Alda-1 (10 mg/kg.day) or vehicle control (50% DMSO/50% PEG-400) by continuous infusion via subcutaneous osmatic pumps for 3 months.
(§2) Vehicle control and Alda-1 treated mice were then analyzed for HSC functionality. […] With reference to FIG. 1A and FIG. 1B, error bars show standard deviation, significance computed with Student's t-test. *=p≤0.05.

HSC = HSC expansion in mice given Alda-1 by continuous subcutaneous infusion; type: in vivo, mice (wild-type C57BL/6N)
Experimental: as §1, §2

HSCs = assay: Competitive repopulation with HSCs from Alda-1 treated and untreated donors; type: in vivo, mice; conditions: FIG. 2
From the text: To measure the effects of ALDH2 activation on HSC potency, recipient mice were transplanted with purified HSCs from two donors, one of which had received Alda-1 prior to collection of HSCs for transplant, and another of the same strain which had not received Alda-1 prior to collection for transplant. The two donors were genetically the same except for a difference in the CD45 gene, which allows the blood cells from each to be distinguished from each other and the recipient.
The Alda-1 treated donor had received Alda-1 subcutaneously for 2 months prior to HSC collection. The cells from the treated and untreated donors were mixed together prior to transplant at fixed ratios of 1:3 (25%), 1:1 (50%), or 3:1 (75%). A total of 3000 HSCs were given intravenously to immunodeficient (γc^-/- Kit^W41/W41) mice after low dose irradiation. The polymorphonuclear neutrophils (PMN, aka granulocytes) in each recipient mouse were tested at 6 weeks after transplant to determine what proportion of the PMN were derived from each HSC donor.
With reference to FIG. 2, the X-axis represents percentage of total cells infused which were from Alda-1 treated donor and the Y-axis represents the actual percentage of PMN observed after HSCT to be derived from Alda-1 treated donor. The linear line represents the predicted ratio if there were no difference in the repopulating ability of the HSC cells.

In the case of `O=C(NCc1ccc2c(c1)OCO2)c1c(Cl)cccc1Cl` [Alda-1], the “tolerability of chronic administration” value [1] is reported as “well tolerated”, the “HSC expansion (in words)” value (HSC; Alda-1 10 mg/kg.day, subcutaneous osmotic pumps, 3 months, vs vehicle control) is reported as “significant HSC expansion” and the “increase in (LT)-HSCs” value (HSC; Alda-1 10 mg/kg.day, subcutaneous osmotic pumps, 3 months, vs vehicle control, FIG. 1A) is reported as 4 fold. For the same compound, the “increase in (ST)-HSCs” value (HSC; Alda-1 10 mg/kg.day, subcutaneous osmotic pumps, 3 months, vs vehicle control, FIG. 1B) was 2 fold, the “long-term mouse HSC (in words)” value (HSC; FIG. 1A legend) was “increases long-term mouse HSC” and the “short-term HSC (in words)” value (HSC; FIG. 1B legend) was “increases short-term HSC”. For the same compound, the “origin of PMN in recipient vs ratio of transplanted cells” value (HSCs; 6 weeks after transplant, treated:untreated donor cells 1:3, 1:1 or 3:1) was “more likely to be derived from the Alda-1 treated donor than predicted” and the “potency / repopulating ability of HSC in recipient” value (HSCs; donor given Alda-1 subcutaneously for 2 months, 3000 HSCs i.v. to irradiated immunodeficient mice) was “increased repopulating ability; also recorded: increased the potency of HSC in repopulating recipient”.
